# According to the kinase profiling compilation of Christmann-Franck et al. (2016):
# Experiments:
# Assay in all cases: radiometric filter-binding kinase assay, Kinase HotSpot
# Conditions in all cases: compound 0.5 µM; ATP 10 µM
# IKBKB (human) = IKBKB (human) (UniProt O14920)
# FRK (human) = FRK (human) (UniProt P42685)
# MAP3K14 (human) = MAP3K14 (human) (UniProt Q99558)
# GRK7 (human) = GRK7 (human) (UniProt Q8WTQ7)
# ULK2 (human) = ULK2 (human) (UniProt Q8IYT8)
# NEK2 (human) = NEK2 (human) (UniProt P51955)
# AKT3 (human) = AKT3 (human) (UniProt Q9Y243)
# TYRO3 (human) = TYRO3 (human) (UniProt Q06418)
# PRKD1 (human) = PRKD1 (human) (UniProt Q15139)
# PAK1 (human) = PAK1 (human) (UniProt Q13153)
# STK16 (human) = STK16 (human) (UniProt O75716)
# FER (human) = FER (human) (UniProt P16591)
# CAMK4 (human) = CAMK4 (human) (UniProt Q16566)
# TEK (human) = TEK (human) (UniProt Q02763)
# HIPK2 (human) = HIPK2 (human) (UniProt Q9H2X6)
# LRRK2 (human) = LRRK2 (human) (UniProt Q5S007)
# SRPK3 (human) = SRPK3 (human) (UniProt Q9UPE1)
# MAP2K1 (human) = MAP2K1 (human) (UniProt Q02750)
# GRK4 (human) = GRK4 (human) (UniProt P32298)
# CAMK1G (human) = CAMK1G (human) (UniProt Q96NX5)
# MST4 (human) = MST4 (human) (UniProt Q9P289)
# RPS6KB2 (human) = RPS6KB2 (human) (UniProt Q9UBS0)
# NEK7 (human) = NEK7 (human) (UniProt Q8TDX7)
# CAMKK1 (human) = CAMKK1 (human) (UniProt Q8N5S9)
# RPS6KB1 (human) = RPS6KB1 (human) (UniProt P23443)
# ACVRL1 (human) = ACVRL1 (human) (UniProt P37023)
# STK3 (human) = STK3 (human) (UniProt Q13188)
# PDGFRB (human) = PDGFRB (human) (UniProt P09619)
# CDC42BPB (human) = CDC42BPB (human) (UniProt Q9Y5S2)
# TAOK2 (human) = TAOK2 (human) (UniProt Q9UL54)
# MAPKAPK5 (human) = MAPKAPK5 (human) (UniProt Q8IW41)
# STK11 (human) = STK11 (human) (UniProt Q15831)
# HIPK4 (human) = HIPK4 (human) (UniProt Q8NE63)
# CDK1 CCNB1 (human) = CDK1 CCNB1 (human) (UniProt P06493+P14635)
# FGFR2 (human) = FGFR2 (human) (UniProt P21802)
# CDK6 CCND3 (human) = CDK6 CCND3 (human) (UniProt P30281+Q00534)
# CLK2 (human) = CLK2 (human) (UniProt P49760)
# MAP3K9 (human) = MAP3K9 (human) (UniProt P80192)
# ABL2 (human) = ABL2 (human) (UniProt P42684)
# TAOK3 (human) = TAOK3 (human) (UniProt Q9H2K8)
# LCK (human) = LCK (human) (UniProt P06239)
# Sequence of GRK7 (human) (Q8WTQ7 whole entry, looked up): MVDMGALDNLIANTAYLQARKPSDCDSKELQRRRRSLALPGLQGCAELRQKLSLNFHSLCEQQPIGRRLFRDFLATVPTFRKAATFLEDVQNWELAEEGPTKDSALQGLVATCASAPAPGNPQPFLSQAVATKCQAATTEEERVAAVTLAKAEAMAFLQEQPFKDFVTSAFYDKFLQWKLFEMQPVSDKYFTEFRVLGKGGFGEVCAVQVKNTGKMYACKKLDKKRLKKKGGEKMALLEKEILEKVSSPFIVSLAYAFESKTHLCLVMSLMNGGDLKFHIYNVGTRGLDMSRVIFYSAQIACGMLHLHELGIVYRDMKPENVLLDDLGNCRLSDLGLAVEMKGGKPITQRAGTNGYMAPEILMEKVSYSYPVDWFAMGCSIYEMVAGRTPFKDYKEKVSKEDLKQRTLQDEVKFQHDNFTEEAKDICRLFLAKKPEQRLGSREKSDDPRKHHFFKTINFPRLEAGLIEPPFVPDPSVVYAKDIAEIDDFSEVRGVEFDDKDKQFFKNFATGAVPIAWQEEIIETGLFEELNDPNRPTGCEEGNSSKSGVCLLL
# Sequence of MAP3K14 (human) (Q99558 whole entry, looked up): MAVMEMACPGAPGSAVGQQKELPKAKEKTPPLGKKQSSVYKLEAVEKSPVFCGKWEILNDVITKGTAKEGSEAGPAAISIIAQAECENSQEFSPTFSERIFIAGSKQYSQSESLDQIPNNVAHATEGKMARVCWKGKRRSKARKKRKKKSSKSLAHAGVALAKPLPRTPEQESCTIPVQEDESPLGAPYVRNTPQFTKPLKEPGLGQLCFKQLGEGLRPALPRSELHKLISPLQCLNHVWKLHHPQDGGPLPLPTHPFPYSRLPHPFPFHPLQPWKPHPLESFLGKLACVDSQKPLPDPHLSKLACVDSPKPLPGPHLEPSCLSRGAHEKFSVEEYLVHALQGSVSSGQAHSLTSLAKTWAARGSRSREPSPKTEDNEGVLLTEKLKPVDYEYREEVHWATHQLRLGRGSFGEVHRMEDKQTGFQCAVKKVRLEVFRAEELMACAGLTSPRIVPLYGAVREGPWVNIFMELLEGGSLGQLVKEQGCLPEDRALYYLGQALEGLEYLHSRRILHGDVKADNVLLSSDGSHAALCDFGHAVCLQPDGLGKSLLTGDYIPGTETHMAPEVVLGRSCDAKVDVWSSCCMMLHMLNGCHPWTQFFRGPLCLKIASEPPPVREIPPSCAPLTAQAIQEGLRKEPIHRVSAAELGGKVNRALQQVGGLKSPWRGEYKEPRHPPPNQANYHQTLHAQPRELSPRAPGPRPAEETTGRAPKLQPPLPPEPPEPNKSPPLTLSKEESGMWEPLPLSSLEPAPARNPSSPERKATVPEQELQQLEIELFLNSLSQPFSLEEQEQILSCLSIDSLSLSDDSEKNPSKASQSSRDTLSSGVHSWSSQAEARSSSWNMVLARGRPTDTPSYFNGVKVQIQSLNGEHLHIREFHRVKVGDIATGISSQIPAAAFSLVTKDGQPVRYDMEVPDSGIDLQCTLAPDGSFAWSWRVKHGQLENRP
# Sequence of CDC42BPB (human) (Q9Y5S2 whole entry, looked up): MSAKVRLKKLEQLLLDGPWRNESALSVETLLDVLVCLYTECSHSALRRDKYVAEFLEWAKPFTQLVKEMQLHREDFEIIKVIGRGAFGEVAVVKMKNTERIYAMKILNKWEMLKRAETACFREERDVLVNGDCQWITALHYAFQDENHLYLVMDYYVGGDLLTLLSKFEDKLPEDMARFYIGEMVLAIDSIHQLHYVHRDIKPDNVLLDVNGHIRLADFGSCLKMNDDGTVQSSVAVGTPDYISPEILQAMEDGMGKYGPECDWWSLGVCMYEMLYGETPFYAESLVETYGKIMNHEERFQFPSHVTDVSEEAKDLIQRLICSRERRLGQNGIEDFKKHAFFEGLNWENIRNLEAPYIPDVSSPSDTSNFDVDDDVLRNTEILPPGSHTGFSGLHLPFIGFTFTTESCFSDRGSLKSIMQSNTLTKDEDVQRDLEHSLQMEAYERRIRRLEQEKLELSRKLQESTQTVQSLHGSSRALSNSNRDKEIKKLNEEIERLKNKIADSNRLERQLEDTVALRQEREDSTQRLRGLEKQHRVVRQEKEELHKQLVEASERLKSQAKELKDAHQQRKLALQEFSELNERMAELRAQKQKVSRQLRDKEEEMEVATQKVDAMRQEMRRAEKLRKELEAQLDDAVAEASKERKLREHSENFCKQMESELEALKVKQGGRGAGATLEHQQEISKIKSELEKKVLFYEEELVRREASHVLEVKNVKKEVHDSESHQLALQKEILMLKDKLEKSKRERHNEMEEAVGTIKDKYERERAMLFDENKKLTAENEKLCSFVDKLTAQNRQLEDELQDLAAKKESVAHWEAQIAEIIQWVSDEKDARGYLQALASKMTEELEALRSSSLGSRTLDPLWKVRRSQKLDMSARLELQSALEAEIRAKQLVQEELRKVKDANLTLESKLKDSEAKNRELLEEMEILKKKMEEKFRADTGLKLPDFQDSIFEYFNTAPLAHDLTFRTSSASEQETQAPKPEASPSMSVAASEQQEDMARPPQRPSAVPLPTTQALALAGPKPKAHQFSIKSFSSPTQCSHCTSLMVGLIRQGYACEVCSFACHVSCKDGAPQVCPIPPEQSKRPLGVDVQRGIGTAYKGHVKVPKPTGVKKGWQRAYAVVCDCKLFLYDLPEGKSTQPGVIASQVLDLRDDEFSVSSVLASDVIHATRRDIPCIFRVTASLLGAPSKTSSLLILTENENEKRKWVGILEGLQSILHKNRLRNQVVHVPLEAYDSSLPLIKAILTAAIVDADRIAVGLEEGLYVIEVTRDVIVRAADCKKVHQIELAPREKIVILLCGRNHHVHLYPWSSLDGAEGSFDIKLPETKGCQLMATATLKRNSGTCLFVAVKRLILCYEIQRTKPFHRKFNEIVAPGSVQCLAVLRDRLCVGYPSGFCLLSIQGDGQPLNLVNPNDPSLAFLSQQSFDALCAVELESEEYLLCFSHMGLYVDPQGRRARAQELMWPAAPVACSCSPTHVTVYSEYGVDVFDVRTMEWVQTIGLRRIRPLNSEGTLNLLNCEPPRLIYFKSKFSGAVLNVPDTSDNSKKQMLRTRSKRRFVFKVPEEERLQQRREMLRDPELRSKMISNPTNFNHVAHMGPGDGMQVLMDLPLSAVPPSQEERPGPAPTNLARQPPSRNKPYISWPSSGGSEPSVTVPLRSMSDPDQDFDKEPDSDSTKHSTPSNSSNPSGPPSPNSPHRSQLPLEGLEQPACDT
# Sequence of RPS6KB1 (human) (P23443 whole entry, looked up): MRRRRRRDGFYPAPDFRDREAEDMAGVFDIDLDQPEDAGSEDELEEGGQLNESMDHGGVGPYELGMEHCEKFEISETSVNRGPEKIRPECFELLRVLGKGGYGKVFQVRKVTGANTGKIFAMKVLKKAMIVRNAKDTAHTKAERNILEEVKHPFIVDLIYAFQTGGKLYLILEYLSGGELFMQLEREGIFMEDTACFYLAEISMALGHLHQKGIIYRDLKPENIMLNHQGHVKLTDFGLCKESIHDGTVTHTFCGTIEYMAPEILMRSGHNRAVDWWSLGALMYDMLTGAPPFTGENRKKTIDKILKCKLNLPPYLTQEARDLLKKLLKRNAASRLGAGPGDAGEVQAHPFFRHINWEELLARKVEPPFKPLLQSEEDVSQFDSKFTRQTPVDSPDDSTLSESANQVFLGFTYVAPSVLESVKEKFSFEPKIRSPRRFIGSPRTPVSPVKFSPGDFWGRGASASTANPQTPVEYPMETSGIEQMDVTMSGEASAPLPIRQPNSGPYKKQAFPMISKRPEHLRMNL
# Sequence of STK3 (human) (Q13188 whole entry, looked up): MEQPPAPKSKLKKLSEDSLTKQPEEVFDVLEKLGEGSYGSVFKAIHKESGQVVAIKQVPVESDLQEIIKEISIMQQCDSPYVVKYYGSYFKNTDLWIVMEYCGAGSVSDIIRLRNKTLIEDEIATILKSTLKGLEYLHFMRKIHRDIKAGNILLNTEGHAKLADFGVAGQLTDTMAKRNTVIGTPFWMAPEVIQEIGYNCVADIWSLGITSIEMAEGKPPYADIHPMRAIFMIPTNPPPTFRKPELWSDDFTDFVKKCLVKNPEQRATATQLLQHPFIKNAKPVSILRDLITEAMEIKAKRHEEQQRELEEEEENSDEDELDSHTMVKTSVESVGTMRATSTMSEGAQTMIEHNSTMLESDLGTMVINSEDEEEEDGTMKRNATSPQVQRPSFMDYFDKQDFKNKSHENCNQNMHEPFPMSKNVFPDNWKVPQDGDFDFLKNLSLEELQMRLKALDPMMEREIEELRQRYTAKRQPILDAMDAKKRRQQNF
# Sequence of CLK2 (human) (P49760 whole entry, looked up): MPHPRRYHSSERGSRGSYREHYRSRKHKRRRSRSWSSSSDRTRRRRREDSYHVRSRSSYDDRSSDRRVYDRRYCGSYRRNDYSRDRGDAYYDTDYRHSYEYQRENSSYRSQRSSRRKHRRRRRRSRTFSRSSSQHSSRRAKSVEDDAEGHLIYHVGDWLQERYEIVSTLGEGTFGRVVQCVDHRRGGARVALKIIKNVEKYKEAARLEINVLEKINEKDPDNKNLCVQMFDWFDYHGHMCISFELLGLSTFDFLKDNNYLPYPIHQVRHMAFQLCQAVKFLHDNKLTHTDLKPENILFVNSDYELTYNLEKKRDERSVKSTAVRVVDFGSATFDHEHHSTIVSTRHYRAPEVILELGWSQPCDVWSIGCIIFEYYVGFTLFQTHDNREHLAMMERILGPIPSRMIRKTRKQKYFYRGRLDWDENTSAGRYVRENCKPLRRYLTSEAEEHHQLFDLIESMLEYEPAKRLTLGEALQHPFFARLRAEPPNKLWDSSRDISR
# Sequence of NEK7 (human) (Q8TDX7 whole entry, looked up): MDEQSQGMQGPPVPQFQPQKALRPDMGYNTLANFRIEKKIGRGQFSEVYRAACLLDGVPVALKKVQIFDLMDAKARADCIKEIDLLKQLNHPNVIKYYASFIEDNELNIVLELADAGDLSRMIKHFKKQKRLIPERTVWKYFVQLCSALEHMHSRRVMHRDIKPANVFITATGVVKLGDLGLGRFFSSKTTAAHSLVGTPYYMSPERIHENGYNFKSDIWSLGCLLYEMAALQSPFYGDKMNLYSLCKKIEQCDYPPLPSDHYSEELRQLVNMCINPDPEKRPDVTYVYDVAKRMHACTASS
Structure (SMILES),residual activity (IKBKB (human)),residual activity (FRK (human)),residual activity (MAP3K14 (human)),residual activity (GRK7 (human)),residual activity (ULK2 (human)),residual activity (NEK2 (human)),residual activity (AKT3 (human)),residual activity (TYRO3 (human)),residual activity (PAK1 (human)),residual activity (STK16 (human)),residual activity (FER (human)),residual activity (HIPK2 (human)),residual activity (LRRK2 (human)),residual activity (SRPK3 (human)),residual activity (MAP2K1 (human)),residual activity (GRK4 (human)),residual activity (MST4 (human)),residual activity (RPS6KB2 (human)),residual activity (NEK7 (human)),residual activity (CAMKK1 (human)),also measured
Cn1c2ccccc2c2c3c(c4c5ccccc5n(CCC#N)c4c21)CNC3=O,90.4%,84.7%,84.1%,37.9%,92.9%,89.9%,85.3%,85.6%,83.3%,81.1%,5.9%,97.8%,30.5%,92.8%,90.2%,75.1%,89.8%,21.6%,97%,19.3%,residual activity (PRKD1 (human)): 17.3%; residual activity (CAMK4 (human)): 88.1%; residual activity (TEK (human)): 104%; residual activity (CAMK1G (human)): 101%; residual activity (RPS6KB1 (human)): 6.71%; residual activity (ACVRL1 (human)): 73.6%; residual activity (STK3 (human)): 3.07%; residual activity (PDGFRB (human)): 60.6%; residual activity (CDC42BPB (human)): 92.1%; residual activity (TAOK2 (human)): 13.3%; residual activity (MAPKAPK5 (human)): 127%; residual activity (STK11 (human)): 31.8%; residual activity (HIPK4 (human)): 103%; residual activity (CDK1 CCNB1 (human)): 38.7%; residual activity (FGFR2 (human)): 79.8%; residual activity (CDK6 CCND3 (human)): 52.1%; residual activity (CLK2 (human)): 88.7%; residual activity (MAP3K9 (human)): 1.49%; residual activity (ABL2 (human)): 42.3%
CO[C@@H]1[C@H](N(C)C(=O)c2ccccc2)C[C@H]2O[C@]1(C)n1c3ccccc3c3c4c(c5c6ccccc6n2c5c31)C(=O)NC4,97.9%,65.8%,113%,15.5%,95.7%,101%,55.1%,98.8%,35.1%,47.9%,22.4%,106%,8.46%,93.3%,109%,94.4%,23.8%,55.9%,101%,20.4%,residual activity (CAMK4 (human)): 103%; residual activity (TAOK3 (human)): 38.1%; residual activity (RPS6KB1 (human)): 19.4%; residual activity (ACVRL1 (human)): 94.3%; residual activity (STK3 (human)): 1.93%; residual activity (PDGFRB (human)): 14.8%; residual activity (CDC42BPB (human)): 95.9%; residual activity (TAOK2 (human)): 86.2%; residual activity (MAPKAPK5 (human)): 92%; residual activity (LCK (human)): 19.8%; residual activity (HIPK4 (human)): 90.5%; residual activity (CLK2 (human)): 36%; residual activity (MAP3K9 (human)): 0.446%
O=C1C(Cl)=C(N2C(=O)CCC2=O)C(=O)c2ccccc21,101%,103%,102%,109%,108%,88.6%,105%,114%,96.3%,100%,103%,104%,103%,93.6%,76.5%,97.6%,98.3%,102%,95.4%,112%,residual activity (PRKD1 (human)): 104%; residual activity (TEK (human)): 96.7%; residual activity (CAMK1G (human)): 98.2%; residual activity (TAOK3 (human)): 95.3%; residual activity (RPS6KB1 (human)): 101%; residual activity (ACVRL1 (human)): 105%; residual activity (STK3 (human)): 98.2%; residual activity (PDGFRB (human)): 103%; residual activity (CDC42BPB (human)): 98.6%; residual activity (TAOK2 (human)): 99.2%; residual activity (MAPKAPK5 (human)): 73.6%; residual activity (STK11 (human)): 99.8%; residual activity (LCK (human)): 106%; residual activity (HIPK4 (human)): 98.2%; residual activity (CDK1 CCNB1 (human)): 118%; residual activity (FGFR2 (human)): 102%; residual activity (CDK6 CCND3 (human)): 99.2%; residual activity (CLK2 (human)): 90.7%; residual activity (MAP3K9 (human)): 106%; residual activity (ABL2 (human)): 106%
